Assay results as given in the supplement of paper PMC8920030.

Experiments:
Conditions in all cases: growth mode: biofilm, 24 h; exposure time: 24 h
tobramycin [1] = compound: T1, NC[C@H]1O[C@H](O[C@H]2[C@H](O)[C@@H](O[C@H]3O[C@H](CO)[C@@H](O)[C@H](N)[C@H]3O)[C@H](N)C[C@@H]2N)[C@H](N)C[C@@H]1O [tobramycin]; assay: minimum concentration of killing, 1-log CFU reduction of biofilm (MCK90); higher = more biofilm tolerance
Protocol: (§1)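 Clinical P. aeruginosa isolates were grown as static biofilms for 24 h at 37 °C in LB in half-area 96-well plates, then exposed for 24 h to tobramycin at 1, 4, 16, 64, 256 or […]. Surviving CFU were counted by spotting serial dilutions. MCK is the lowest tested concentration giving the stated log reduction in CFU versus an untreated control; '>1024' means the reduction was not reached at the top dose, and 1 is the lowest dose tested (≤1).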

colistin [2] = compound: T2, CCC(C)CCCC(=O)N[C@@H](CCN)C(=O)N[C@H](C(=O)N[C@@H](CCN)C(=O)N[C@H]1CCNC(=O)[C@H]([C@@H](C)O)NC(=O)[C@H](CCN)NC(=O)[C@H](CCN)NC(=O)[C@H](CC(C)C)NC(=O)[C@@H](CC(C)C)NC(=O)[C@H](CCN)NC1=O)[C@@H](C)O [colistin]; assay: minimum concentration of killing, 2-log CFU reduction of biofilm (MCK99); higher = more biofilm tolerance
Protocol: as §1, with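 “colistin” for “tobramycin”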

tobramycin [3] = compound: T1, tobramycin; assay: as above
Protocol: as §1

tobramycin [4] = compound: T1, tobramycin; assay: minimum concentration eradicating biofilm below detection limit (MCK-E); higher = more biofilm tolerance
Protocol: as §1

colistin [5] = compound: T2, colistin; assay: minimum concentration of killing, 1-log CFU reduction of biofilm (MCK90); higher = more biofilm tolerance
Protocol: as §1, with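 “colistin” for “tobramycin”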

colistin [6] = compound: T2, colistin; assay: minimum concentration of killing, 4-log CFU reduction of biofilm (MCK99.99); higher = more biofilm tolerance
Protocol: as §1, with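 “colistin” for “tobramycin”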

tobramycin [7] = compound: T1, tobramycin; assay: as above
Protocol: as §1

colistin [8] = compound: T2, colistin; assay: minimum concentration eradicating biofilm below detection limit (MCK-E); higher = more biofilm tolerance
Protocol: as §1, with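 “colistin” for “tobramycin”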

Test System | minimum concentration of killing (tobramycin [1]) | minimum concentration of killing (colistin [2]) | minimum concentration of killing (tobramycin [3]) | minimum concentration eradicating biofilm below detection limit (tobramycin [4]) | minimum concentration of killing (colistin [5]) | minimum concentration of killing (colistin [6]) | minimum concentration of killing (tobramycin [7]) | minimum concentration eradicating biofilm below detection limit (colistin [8])
Pseudomonas aeruginosa clinical isolate ESP020 | 4 µg/mL | 256 µg/mL | 256 µg/mL | 256 µg/mL | 64 µg/mL | 256 µg/mL | 256 µg/mL | 256 µg/mL
Pseudomonas aeruginosa clinical isolate ESP021 | 4 µg/mL | 64 µg/mL | 4 µg/mL | 64 µg/mL | 16 µg/mL | 256 µg/mL | 64 µg/mL | 256 µg/mL
Pseudomonas aeruginosa clinical isolate ESP022 | 16 µg/mL | 256 µg/mL | 16 µg/mL | 256 µg/mL | 256 µg/mL | 256 µg/mL | 16 µg/mL | 256 µg/mL
Pseudomonas aeruginosa clinical isolate ESP023 | ≤ 1 µg/mL | 64 µg/mL | 16 µg/mL | 16 µg/mL | 64 µg/mL | 64 µg/mL | 16 µg/mL | 64 µg/mL
Pseudomonas aeruginosa clinical isolate ESP024 | ≤ 1 µg/mL | 4 µg/mL | 4 µg/mL | 64 µg/mL | 4 µg/mL | 256 µg/mL | 16 µg/mL | 256 µg/mL
Pseudomonas aeruginosa clinical isolate ESP025 | 1020 µg/mL | 16 µg/mL | > 1020 µg/mL | > 1020 µg/mL | 16 µg/mL | 16 µg/mL | > 1020 µg/mL | 64 µg/mL
Pseudomonas aeruginosa clinical isolate ESP027 | ≤ 1 µg/mL | 64 µg/mL | 4 µg/mL | 1020 µg/mL | 16 µg/mL | 64 µg/mL | 1020 µg/mL | 64 µg/mL
Pseudomonas aeruginosa clinical isolate ESP028 | 16 µg/mL | 256 µg/mL | 256 µg/mL | 1020 µg/mL | 256 µg/mL | 256 µg/mL | 1020 µg/mL | 256 µg/mL
Pseudomonas aeruginosa clinical isolate ESP029 | 4 µg/mL | 256 µg/mL | 4 µg/mL | 256 µg/mL | 256 µg/mL | 256 µg/mL | 256 µg/mL | 256 µg/mL
Pseudomonas aeruginosa clinical isolate ESP031 | 1020 µg/mL | 256 µg/mL | 1020 µg/mL | 1020 µg/mL | 256 µg/mL | 256 µg/mL | 1020 µg/mL | 256 µg/mL
Pseudomonas aeruginosa clinical isolate ESP032 | 256 µg/mL | 256 µg/mL | 256 µg/mL | > 1020 µg/mL | 256 µg/mL | 256 µg/mL | 1020 µg/mL | 256 µg/mL
Pseudomonas aeruginosa clinical isolate ESP033 | 16 µg/mL | 256 µg/mL | 64 µg/mL | 256 µg/mL | 256 µg/mL | 256 µg/mL | 64 µg/mL | 256 µg/mL
Pseudomonas aeruginosa clinical isolate ESP034 | 4 µg/mL | 256 µg/mL | 16 µg/mL | 1020 µg/mL | 256 µg/mL | 256 µg/mL | 1020 µg/mL | 256 µg/mL
Pseudomonas aeruginosa clinical isolate ESP035 | 256 µg/mL | 256 µg/mL | 256 µg/mL | 1020 µg/mL | 64 µg/mL | 256 µg/mL | 256 µg/mL | 256 µg/mL
Pseudomonas aeruginosa clinical isolate ESP036 | ≤ 1 µg/mL | 256 µg/mL | 4 µg/mL | 64 µg/mL | 256 µg/mL | 256 µg/mL | 16 µg/mL | 256 µg/mL
Pseudomonas aeruginosa clinical isolate ESP037 | 4 µg/mL | 64 µg/mL | 4 µg/mL | 256 µg/mL | 64 µg/mL | 64 µg/mL | 64 µg/mL | 64 µg/mL
Pseudomonas aeruginosa clinical isolate ESP038 | ≤ 1 µg/mL | 64 µg/mL | 4 µg/mL | 64 µg/mL | 64 µg/mL | 256 µg/mL | 4 µg/mL | 256 µg/mL
Pseudomonas aeruginosa clinical isolate ESP039 | 4 µg/mL | 64 µg/mL | 16 µg/mL | 256 µg/mL | 64 µg/mL | 64 µg/mL | 64 µg/mL | 64 µg/mL
